From patent publication US5175146A, “Synthetic calcitonin peptides” (Vical, Inc., priority 1990, dated 1992)
Starred links: 1 amine or outer side, 2 acyl side, 3 side chain; linkers in the order of their positions; H or OH if unused. Positions of bridges follow the written chain, without caps; N, C: chain ends. Residues, ends and D or L forms follow the SMILES beside them. Suc = O=C(CCC(=O)[*:2])[*:1]

Legend:
[1] = design: species or system rabbits; settings: rabbit, in vivo
Procedure: Peptides of the formula I when administered intranasally show hypocalcemic effects in animals. In order to determine their bioavailability, the effect of hypocalcemic peptides administered intranasally were compared with those administered by intravenous injection, as described below. Nasal powdery formulations containing 100 IU per 30 mg of dry powder were prepared substantially as described in U.S. Pat. No. 4,613,500. Peptides were administered intranasally at a dose of 2.8 IU/kg or intravenously at a dose of 1.75 IU/kg to rabbits. Blood samples were withdrawn before administering the peptides and 0.5, 1, 2, 4, and 6 hours after administration, and serum calcium levels determined. The ratios of areas under the curve of hypocalcemic effect (0 to 6 hours) after nasal and intravenous administration are calculated.

[2] = system: Male rats (Sprague Dawley); assay: Hypocalcemic activity: serum Ca++ decrease in rats after subcutaneous injection; format: in vivo; settings: rat serum
Procedure: Calcitonins lower the blood calcium of immature rats by inhibiting bone resorption. Their potency can be assessed by determining the micrograms of peptide required to reduce the serum calcium by ten percent. The results of in vivo tests of the biological activities of synthetic calcitonin peptides of the invention are shown in Example 37.
This activity was measured as follows: Male rats (Sprague Dawley) weighing approximately 100 grams were fasted overnight. Peptides according to the invention, comprising various potency-enhancing modifications, were dissolved in pH 7.4 PBS buffer at a concentration range of 0.001 microgram to about 100 microgram per ml. The rats were anesthetized with Metophane10, weighed and injected subcutaneously with the peptide solutions in a dose of from 0.001 to about 100 microgram per kilogram of body weight. […] Calcium-lowering potencies of the synthetic peptides can be calculated in International units (IU) per mg as described by the method of M. Kumar et al., J. Endocrinology 33:469-475 (1964). According to this test, 10 IU is defined as the amount of peptide necessary for lowering Ca++ concentration by 10% in 100 gram rats one hour after subcutaneous injection. Serum Ca++ levels in the rat after subcutaneous injection of various peptides are summarized below: […]

Ratio of Nasal:i.v. Bioavailability [1] | Molecule | Ca++ Decrease ([2]; dose 1 ug/kg s.c., 1 hr) | Ca++ Decrease ([2]; dose 10 ug/kg s.c., 1 hr) | Ca++ Decrease ([2]; dose 100 ug/kg s.c., 1 hr) | also measured
14.3% | CC(C)C[C@H](NC(=O)[C@H](CC(C)C)NC(=O)[C@@H]1CCCCNC(=O)CCC(=O)N[C@@H](CO)C(=O)N[C@@H](CC(N)=O)C(=O)N[C@@H](CC(C)C)C(=O)N[C@@H](CO)C(=O)N[C@@H]([C@@H](C)O)C(=O)N1)C(=O)NCC(=O)N[C@@H](CCCCN)C(=O)N[C@@H](CC(C)C)C(=O)N[C@@H](CO)C(=O)N[C@@H](CCC(N)=O)C(=O)N[C@@H](CCC(=O)O)C(=O)N[C@@H](CC(C)C)C(=O)N[C@@H](Cc1c[nH]cn1)C(=O)N[C@@H](CCCCN)C(=O)N[C@@H](CC(C)C)C(=O)N[C@@H](CCC(N)=O)C(=O)N[C@H](C(=O)N[C@@H](Cc1ccc(O)cc1)C(=O)N1CCC[C@H]1C(=O)N[C@@H](CCCNC(=N)N)C(=O)N[C@H](C(=O)N[C@@H](CC(=O)O)C(=O)N[C@H](C(=O)NCC(=O)N[C@@H](C)C(=O)NCC(=O)N[C@H](C(=O)N1CCC[C@H]1C(N)=O)[C@@H](C)O)C(C)C)[C@@H](C)O)[C@@H](C)O (SNLSTKLLGKLSQELHKLQTYPRTDVGAGTP-NH2; linker N-6 via Suc) |  |  |  | 
28.6% | CC(C)C[C@H](NC(=O)[C@H](CC(C)C)NC(=O)[C@@H]1CSSC[C@H](N)C(=O)N[C@@H](CO)C(=O)N[C@@H](CC(N)=O)C(=O)N[C@@H](CC(C)C)C(=O)N[C@@H](CO)C(=O)N[C@@H]([C@@H](C)O)C(=O)N1)C(=O)NCC(=O)N[C@@H](CCCCN)C(=O)N[C@@H](CC(C)C)C(=O)N[C@@H](CO)C(=O)N[C@@H](CCC(N)=O)C(=O)N[C@@H](CCC(=O)O)C(=O)N[C@@H](CC(C)C)C(=O)N[C@@H](Cc1c[nH]cn1)C(=O)N[C@@H](CCCCN)C(=O)N[C@@H](CC(C)C)C(=O)N[C@@H](CCC(N)=O)C(=O)N[C@H](C(=O)N[C@@H](Cc1ccc(O)cc1)C(=O)N1CCC[C@H]1C(=O)N[C@@H](CCCNC(=N)N)C(=O)N[C@H](C(=O)N[C@@H](CC(=O)O)C(=O)N[C@H](C(=O)NCC(=O)N[C@@H](C)C(=O)NCC(=O)N[C@H](C(=O)N1CCC[C@H]1C(N)=O)[C@@H](C)O)C(C)C)[C@@H](C)O)[C@@H](C)O [(Leu^8)-eCT] (H-CSNLSTCLLGKLSQELHKLQTYPRTDVGAGTP-NH2; disulfide 1-7) |  |  |  | 
28.0% | CC[C@H](C)[C@H](NC(=O)[C@H](C)NC(=O)[C@@H](NC(=O)[C@H](CCC(N)=O)NC(=O)[C@@H]1CCCN1C(=O)[C@H](Cc1ccccc1)NC(=O)[C@@H](NC(=O)[C@H](Cc1c[nH]cn1)NC(=O)[C@H](Cc1ccccc1)NC(=O)[C@H](CCCCN)NC(=O)[C@H](CC(N)=O)NC(=O)[C@H](CC(C)C)NC(=O)[C@H](CC(=O)O)NC(=O)[C@H](CCC(N)=O)NC(=O)[C@@H](NC(=O)[C@H](CC(C)C)NC(=O)[C@@H](NC(=O)CNC(=O)[C@H](CC(C)C)NC(=O)[C@H](CC(C)C)NC(=O)[C@@H]1CSSC[C@H](N)C(=O)NCC(=O)N[C@@H](CC(N)=O)C(=O)N[C@@H](CC(C)C)C(=O)N[C@@H](CO)C(=O)N[C@@H]([C@@H](C)O)C(=O)N1)[C@@H](C)O)[C@@H](C)O)[C@@H](C)O)[C@@H](C)O)C(=O)NCC(=O)N[C@H](C(=O)NCC(=O)N[C@@H](C)C(=O)N1CCC[C@H]1C(N)=O)C(C)C [[Leu-8,12,16]-hCT, [Leu^8,12,16]-hCT] (H-CGNLSTCLLGTLTQDLNKFHTFPQTAIGVGAP-NH2; disulfide 1-7) |  |  |  | 
 | [(ADA-Ser)-5,Ala-7]-cCT(5-32) | 0.19 mg/dL | 2.83 mg/dL |  | Ca++ Decrease ([2]; dose 1 ug/kg s.c., 3 hr): 0.14 mg/dL; Ca++ Decrease ([2]; dose 3 ug/kg s.c., 1 hr): 0.33 mg/dL; Ca++ Decrease ([2]; dose 3 ug/kg s.c., 3 hr): 0.21 mg/dL; Ca++ Decrease ([2]; dose 10 ug/kg s.c., 3 hr): 2.98 mg/dL; Ca++ Decrease ([2]; dose 10 ug/kg s.c., 6 hr): 2.10 mg/dL
 | [(Ac0AOA-SerThr)2 -Lys-7]-cCT(7-32) | 2.29 mg/dL | 2.45 mg/dL | 2.34 mg/dL | Ca++ Decrease ([2]; dose 0.1 ug/kg s.c., 1 hr): 0.42 mg/dL; Ca++ Decrease ([2]; dose 0.4 ug/kg s.c., 1 hr): 0.45 mg/dL
 | [(Chx-Ser)^5, Ala^7, des-^22 ]-Avian Calcitonin (5-32) [[(CHX-Ser)-5,Ala-7,des-22]-cCT(5-32)] | 0.32 mg/dL | 1.42 mg/dL | 1.82 mg/dL | 
17.4% | [(Chx-Ser-Thr)2 -Lys^7, Leu^8 ]-Eel Calcitonin (7-32) [[(ChxSerThr)2 -Lys^7, Leu^8]-eCT(7-32)] | 2.42 mg/dL |  |  | Ca++ Decrease ([2]; dose 0.01 ug/kg s.c., 1 hr): 0.13 mg/dL; Ca++ Decrease ([2]; dose 0.03 ug/kg s.c., 1 hr): 0.24 mg/dL; Ca++ Decrease ([2]; dose 0.1 ug/kg s.c., 1 hr): 0.39 mg/dL; Ca++ Decrease ([2]; dose 0.32 ug/kg s.c., 1 hr): 1.09 mg/dL
 | [(D-Ala-Ada-Ser)^5, Ala^7, des-^22 ]-Avian Calcitonin (5-32) | 0.32 mg/dL | 1.42 mg/dL | 1.82 mg/dL | 
37.5% | [(LeuCys)^1, Leu^8 ]-eCT | 3.35 mg/dL |  |  | Ca++ Decrease ([2]; dose 0.03 ug/kg s.c., 1 hr): 1.24 mg/dL
 | [(Oleyl-Ser)-5,Ala-7]-cCT(5-32) | 0.47 mg/dL | 0.60 mg/dL | 1.15 mg/dL | 
 | [(SerThr)2 -Lys-7]-cCT(7-32) | 2.09 mg/dL | 2.75 mg/dL | 2.75 mg/dL | 
